Results: PubChem BioAssay AID256 (DTP/NCI, 2004)
“And” between values parts separate entries of the source, which are not always exact repeats. Equal entries are not always repeated. Inconclusive results and toxic doses are left out.

Test system: CD2F1 mice, L1210 leukemia ip, survival T/C
Experiment: NCI In Vivo Anticancer Drug Screen. Data for tumor model L1210 Leukemia (intraperitoneal) in CD2F1 (CDF1) mice
Settings: higher = longer survival
In short: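 Vehicle-treated tumor-bearing mice served as controls (C) for compound-treated mice (T). Reported figure is T divided by C.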

[1] = endpoint: mean survival time, dose: 25.0 mg/kg/injection, schedule: Q01DX009 (ip), vehicle: saline with Tween-80
[2] = endpoint: mean survival time, dose: 100.0 mg/kg/injection, schedule: Q04DX003 (ip), vehicle: saline with Tween-80
[3] = endpoint: mean survival time, dose: 400.0 mg/kg/injection, schedule: Q04DX003 (ip), vehicle: saline with Tween-80
[4] = endpoint: median survival time, dose: 50.0 mg/kg/injection, schedule: Q04DX003 (ip), vehicle: saline with Tween-80
[5] = endpoint: median survival time, dose: 100.0 mg/kg/injection, schedule: Q04DX003 (ip), vehicle: saline with Tween-80
[6] = endpoint: mean survival time, dose: 50.0 mg/kg/injection, schedule: Q01DX009 (ip), vehicle: saline with Tween-80
[7] = endpoint: mean survival time, dose: 100.0 mg/kg/injection, schedule: Q01DX009 (ip), vehicle: saline with Tween-80
[8] = endpoint: mean survival time, dose: 400.0 mg/kg/injection, schedule: Q01DX009 (ip), vehicle: saline with Tween-80
[9] = endpoint: mean survival time, dose: 200.0 mg/kg/injection, schedule: Q01DX009 (ip), vehicle: saline with Tween-80
[10] = endpoint: mean survival time, dose: 200.0 mg/kg/injection, schedule: Q04DX003 (ip), vehicle: saline with Tween-80
[11] = endpoint: mean survival time, dose: 50.0 mg/kg/injection, schedule: Q04DX003 (ip), vehicle: saline with Tween-80
[12] = endpoint: mean survival time, dose: 100.0 mg/kg/injection, schedule: Q04DX003 (ip), vehicle: Klucel (hydroxypropylcellulose) (HPC)
[13] = endpoint: mean survival time, dose: 200.0 mg/kg/injection, schedule: Q04DX003 (ip), vehicle: Klucel (hydroxypropylcellulose) (HPC)

## N#CC1=C(N)CCC1
endpoint: mean survival time, dose: 6.25 mg/kg/injection, schedule: Q01DX009 (ip), vehicle: saline with Tween-80
  T/C: 97 % of control
endpoint: mean survival time, dose: 12.5 mg/kg/injection, schedule: Q01DX009 (ip), vehicle: saline with Tween-80
  T/C: 95 % of control
[1]
  T/C: 93 % of control
[2]
  T/C: 102 % of control
[3]
  T/C: 97 % of control

## CC(c1ccccc1C(=O)O)c1cc(F)cc2ccccc12 (centres undefined)
endpoint: median survival time, dose: 25.0 mg/kg/injection, schedule: Q04DX003 (ip), vehicle: saline with Tween-80
  T/C: 111 % of control
[4]
  T/C: 111 % of control
[5]
  T/C: 88 % of control
endpoint: median survival time, dose: 200.0 mg/kg/injection, schedule: Q04DX003 (ip), vehicle: saline with Tween-80
  T/C: 88 % of control

## Nc1ccc(-c2c(N)ncc3ccccc23)cc1
endpoint: mean survival time, dose: 50.0 mg/kg/injection, schedule: Q04DX003 (ip), vehicle: DMSO
  T/C: 101 % of control

## CNCC(O)c1ccc(O)c(O)c1.[Pt].c1ccc([PH+](c2ccccc2)c2ccccc2)cc1.c1ccc([PH+](c2ccccc2)c2ccccc2)cc1
endpoint: median survival time, dose: 10.0 mg/kg/injection, schedule: Q04DX003 (ip), vehicle: saline with Tween-80
  T/C: 94 % of control
endpoint: median survival time, dose: 20.0 mg/kg/injection, schedule: Q04DX003 (ip), vehicle: saline with Tween-80
  T/C: 108 % of control
endpoint: median survival time, dose: 40.0 mg/kg/injection, schedule: Q04DX003 (ip), vehicle: saline with Tween-80
  T/C: 109 % of control
[4]
  T/C: 102 % of control
endpoint: median survival time, dose: 80.0 mg/kg/injection, schedule: Q04DX003 (ip), vehicle: saline with Tween-80
  T/C: 105 % of control
[5]
  T/C: 101 % of control

## CCOC(=O)C1(C#N)C(=O)CSC1=Nc1ccccc1Cl (centres undefined)
[1]
  T/C: 90 % of control
[6]
  T/C: 91 % of control
[7]
  T/C: 86 % of control
[8]
  T/C: 86 % of control

## CCCCOP(=O)(OCCCC)C(CCC)OP(OC(CCC)P(=O)(OCCCC)OCCCC)OC(CCC)P(=O)(OCCCC)OCCCC (centres undefined)
endpoint: mean survival time, dose: 100.0 mg/kg/injection, schedule: Q04DX002 (ip), vehicle: saline
  T/C: 103 % of control
endpoint: mean survival time, dose: 200.0 mg/kg/injection, schedule: Q04DX002 (ip), vehicle: saline
  T/C: 89 % of control
endpoint: mean survival time, dose: 400.0 mg/kg/injection, schedule: Q04DX002 (ip), vehicle: saline
  T/C: 97 % of control

## c1ccc2nc3ccccc3cc2c1
[7]
  T/C: 101 % of control
[9]
  T/C: 103 % of control

## CN(C)c1ccc(-c2c3cc(O)c(=O)cc-3oc3cc(O)c(O)cc23)cc1
[6]
  T/C: 92 % of control
[7]
  T/C: 95 % of control
[9]
  T/C: 91 % of control

## O=c1[nH]c(=S)[nH]c(-c2ccc(Cl)cc2)c1CCO
[2]
  T/C: 94 % of control
[10]
  T/C: 92 % of control
[3]
  T/C: 90 % of control

## CCOC(=O)c1[nH]c(=S)n(Cc2ccccc2)c1C(=O)OCC
[11]
  T/C: 103 % of control
[2]
  T/C: 108 % of control
[10]
  T/C: 97 % of control

## Nc1ccn(C2CC(CO)C(O)C2O)c(=O)n1 (centres undefined)
endpoint: mean survival time, dose: 150.0 mg/kg/injection, schedule: Q01DX009 (ip), vehicle: saline
  T/C: 204 % of control

## CC(=O)N(C)N=Nc1ccc(F)cc1
endpoint: mean survival time, dose: 25.0 mg/kg/injection, schedule: Q04DX003 (ip), vehicle: Klucel (hydroxypropylcellulose) (HPC)
  T/C: 105 % of control
endpoint: mean survival time, dose: 50.0 mg/kg/injection, schedule: Q04DX003 (ip), vehicle: Klucel (hydroxypropylcellulose) (HPC)
  T/C: 102 % of control
[12]
  T/C: 105 % of control
[13]
  T/C: 105 % of control

## CCC(=O)OCC(=O)[C@]1(O)Cc2c(O)c3c(c(O)c2[C@@H](OC2CC(N)C(O)C(C)O2)C1)C(=O)c1c(OC)cccc1C3=O (some centres undefined)
endpoint: mean survival time, dose: 0.25 mg/kg/injection, schedule: Q01DX009 (ip), vehicle: saline
  T/C: 112 % of control
endpoint: mean survival time, dose: 0.5 mg/kg/injection, schedule: Q01DX009 (ip), vehicle: saline
  T/C: 122 % of control
endpoint: mean survival time, dose: 1.5 mg/kg/injection, schedule: Q04DX003 (ip), vehicle: saline sonified
  T/C: 166 % of control
endpoint: mean survival time, dose: 2.0 mg/kg/injection, schedule: Q01DX009 (ip), vehicle: saline
  T/C: 155 % of control
endpoint: mean survival time, dose: 2.0 mg/kg/injection, schedule: Q04DX003 (ip), vehicle: saline with Tween-80
  T/C: 118 % of control
endpoint: mean survival time, dose: 8.0 mg/kg/injection, schedule: Q01DX009 (ip), vehicle: saline
  T/C: 89 % of control

## CC1(O)OOC(=O)C1(C)C (centres undefined)
endpoint: mean survival time, dose: 5.0 mg/kg/injection, schedule: Q01DX001 (ip), vehicle: saline with Tween-80
  T/C: 91 % of control
endpoint: mean survival time, dose: 10.0 mg/kg/injection, schedule: Q01DX001 (ip), vehicle: saline with Tween-80
  T/C: 91 % of control
endpoint: mean survival time, dose: 20.0 mg/kg/injection, schedule: Q01DX001 (ip), vehicle: saline with Tween-80
  T/C: 92 % of control

## O=CN/N=C/c1ccc2c(c1)CCC2
[2]
  T/C: 107 % of control
[10]
  T/C: 96 % of control
[3]
  T/C: 96 % of control

## COc1ccccc1OC(=O)Nc1cc([N+](=O)[O-])ccc1C
[2]
  T/C: 89 % of control
[10]
  T/C: 97 % of control
[3]
  T/C: 87 % of control

## CC(=O)c1ccc(C(=O)CC(O)(C(F)(F)F)C(F)(F)F)cc1
endpoint: mean survival time, dose: 50.0 mg/kg/injection, schedule: Q01DX009 (ip), vehicle: other
  T/C: 98 % of control
endpoint: mean survival time, dose: 100.0 mg/kg/injection, schedule: Q01DX009 (ip), vehicle: other
  T/C: 104 % of control
endpoint: mean survival time, dose: 100.0 mg/kg/injection, schedule: Q04DX003 (ip), vehicle: other
  T/C: 95 % of control
endpoint: mean survival time, dose: 200.0 mg/kg/injection, schedule: Q01DX009 (ip), vehicle: other
  T/C: 106 % of control
endpoint: mean survival time, dose: 200.0 mg/kg/injection, schedule: Q04DX003 (ip), vehicle: other
  T/C: 97 % of control

## Cc1cc(C)c(CCc2c(C)cc(C)cc2C)c(C)c1
endpoint: mean survival time, dose: 25.0 mg/kg/injection, schedule: Q04DX003 (ip), vehicle: saline with Tween-80
  T/C: 96 % of control
[11]
  T/C: 98 % of control
[7]
  T/C: 89 % of control
[2]
  T/C: 100 % of control
[9]
  T/C: 96 % of control
[8]
  T/C: 93 % of control

## CN=C(Nc1ccc(OC)c2ccccc12)SC
[12]
  T/C: 89 % of control
[13]
  T/C: 91 % of control

## COc1ccc(CNCCCC2C3CCC(C3)C2CN)cc1 (centres undefined)
[2]
  T/C: 95 % of control
[10]
  T/C: 95 % of control

## Cc1ccc2c(c1)Sc1ccc3ccccc3c1N2
[7]
  T/C: 95 % of control
[12]
  T/C: 96 % of control
[9]
  T/C: 97 % of control
[13]
  T/C: 95 % of control
[8]
  T/C: 97 % of control
endpoint: mean survival time, dose: 400.0 mg/kg/injection, schedule: Q04DX003 (ip), vehicle: Klucel (hydroxypropylcellulose) (HPC)
  T/C: 98 % of control

## CNC(=O)/C(=C(\[O-])NC)[S+](C)(C)=O
[2]
  T/C: 101 % of control
[10]
  T/C: 100 % of control
[3]
  T/C: 100 % of control

## COc1ccc(Cl)cc1NC(=O)N/N=C(\C)CC(C)C
endpoint: mean survival time, dose: 100.0 mg/kg/injection, schedule: Q01DX001 (ip), vehicle: saline with Tween-80
  T/C: 105 % of control
endpoint: mean survival time, dose: 200.0 mg/kg/injection, schedule: Q01DX001 (ip), vehicle: saline with Tween-80
  T/C: 95 % of control
endpoint: mean survival time, dose: 400.0 mg/kg/injection, schedule: Q01DX001 (ip), vehicle: saline with Tween-80
  T/C: 101 % of control

## COc1ccc(/C=c2\[nH]c(=O)/c(=C/c3ccc(OC)c(OC)c3)[nH]c2=O)cc1OC
[1]
  T/C: 95 % of control
[6]
  T/C: 103 % of control
[7]
  T/C: 90 % of control

## Cc1cc(=O)[nH]c2c(C)cc(Cl)cc12
[2]
  T/C: 106 % of control
[10]
  T/C: 109 % of control
[3]
  T/C: 97 % of control

## CCCCCC(C)NCCO (centres undefined)
endpoint: mean survival time, dose: 75.0 mg/kg/injection, schedule: Q01DX001 (ip), vehicle: saline
  T/C: 98 % of control

## Cc1ccc2nc(NC(=O)N(CCCl)N=O)sc2c1
endpoint: mean survival time, dose: 118.0 mg/kg/injection, schedule: Q01DX009 (ip), vehicle: other
  T/C: 197 % of control
endpoint: mean survival time, dose: 177.0 mg/kg/injection, schedule: Q01DX001 (ip), vehicle: other
  T/C: 162 % of control
endpoint: mean survival time, dose: 177.0 mg/kg/injection, schedule: Q01DX009 (ip), vehicle: other
  T/C: 96 % of control
endpoint: mean survival time, dose: 266.0 mg/kg/injection, schedule: Q01DX001 (ip), vehicle: other
  T/C: 154 % of control
endpoint: mean survival time, dose: 266.0 mg/kg/injection, schedule: Q01DX009 (ip), vehicle: other
  T/C: 111 % of control
endpoint: mean survival time, dose: 400.0 mg/kg/injection, schedule: Q01DX001 (ip), vehicle: other
  T/C: 156 % of control
endpoint: mean survival time, dose: 400.0 mg/kg/injection, schedule: Q01DX009 (ip), vehicle: other
  T/C: 88 % of control
endpoint: mean survival time, dose: 600.0 mg/kg/injection, schedule: Q01DX001 (ip), vehicle: other
  T/C: 234 % of control

## NC(=S)N/N=C/c1ccc(Cl)cn1
endpoint: mean survival time, dose: 4.89 mg/kg/injection, schedule: Q01DX009 (ip), vehicle: saline with Tween-80
  T/C: 120 % of control
endpoint: mean survival time, dose: 6.25 mg/kg/injection, schedule: Q04DX002 (ip), vehicle: saline with Tween-80
  T/C: 100 % of control
endpoint: mean survival time, dose: 12.5 mg/kg/injection, schedule: Q04DX002 (ip), vehicle: saline with Tween-80
  T/C: 104 % of control and 108 % of control
